Calls of active or inactive are those of the source. No cut-off for these calls is given here.
Legend:
[1] = Toxicity in athymic nude BALB/c mouse xenografted with human HCT-116 cells assessed as reduction in body weight at 5 to 15 mg/kg, ip administered every other day and measured every other day for 16 days; type: organism-based; conditions: in vivo, 384 h, dose 5-15 mg/kg, time 16 day
Mus musculus [2] = experiment: In vivo inhibition of NFkappaB activation in athymic BALB/c mouse xenografted with human HCT-116 cells assessed as reduction in IL-8 gene expression in tumor at 15 mg/kg, ip administered every other day and measured after 14 days by qRT-PCR analysis; type: functional, organism-based; conditions: time 14.0 day
HT-29 [3] = experiment: Induction of autophagic flux in human HT-29 cells assessed as increase in LC3 protein expression preincubated with chloroquine for 1 hr followed by compound addition and measured after 24 hrs by Western blot analysis; type: functional, cell-based
SW-620 = experiment: Cytotoxicity against human SW620 cells assessed as decrease in cell viability incubated for 48 hrs by SRB assay; type: functional, cell-based; conditions: SW-620, 48 h
HT-29 [4] = experiment: Induction of cell cycle arrest in human HT-29 cells assessed as accumulation of cells at G0/G1 phase at 5 uM by RNase/PI staining based flow cytometry analysis (reference value: 50.73 %); type: functional
HCT-116 [5] = experiment: Induction of cell cycle arrest in human HCT-116 cells assessed as decrease in Cdc25c protein expression upto 10 uM incubated for 24 hrs by Western blot analysis; type: functional, cell-based
HT-29 [6] = experiment: Induction of cell cycle arrest in human HT-29 cells assessed as decrease in Cdc2 protein expression upto 10 uM incubated for 24 hrs by Western blot analysis; type: functional, cell-based
HT-29 [7] = experiment: Induction of cell cycle arrest in human HT-29 cells assessed as decrease in CDK4 protein expression upto 10 uM incubated for 24 hrs by Western blot analysis; type: functional, cell-based
HCT-116 [8] = experiment: Induction of apoptosis in human HCT-116 cells assessed as early apoptotic cells at 5 uM incubated for 24 hrs by Annexin V-FITC/PI staining based flow cytometric analysis (reference value: 7.22 %); type: functional
HCT-116 [9] = experiment: Induction of apoptosis in human HCT-116 cells assessed as necrotic cells at 1 uM incubated for 24 hrs by Annexin V-FITC/PI staining based flow cytometric analysis (reference value: 1.1 %); type: functional
HT-29 [10] = experiment: Induction of apoptosis in human HT-29 cells assessed as viable cells at 1 uM incubated for 24 hrs by Annexin V-FITC/PI staining based flow cytometric analysis (reference value: 93 %); type: functional; conditions: read-out: Activity
HT-29 [11] = experiment: Induction of apoptosis in human HT-29 cells assessed as early apoptotic cells at 1 uM incubated for 24 hrs by Annexin V-FITC/PI staining based flow cytometric analysis (reference value: 5.29 %); type: functional
HT-29 [12] = experiment: Induction of apoptosis in human HT-29 cells assessed as inhibition of caspase 3 protein expression measured for 24 hrs by Western blot analysis; type: functional, cell-based; conditions: dose 0-10 µM
HCT-116 [13] = experiment: Induction of apoptosis in human HCT-116 cells assessed as necrotic cells at 5 uM incubated for 24 hrs by Annexin V-FITC/PI staining based flow cytometric analysis (reference value: 0.69 %); type: functional
HCT-116 [14] = experiment: Induction of apoptosis in human HCT-116 cells assessed as necrotic cells at 5 uM preincubated with Z-VAD-FMK for 1 hr followed by compound addition and measured after 24 hrs by Annexin V-FITC/PI staining based flow cytometric analysis (reference value: 0.34 %); type: functional
[15] = target: T1, Nuclear factor NF-kappa-B complex (Homo sapiens) (UniProt Q00653+P19838+Q04206); experiment: Inhibition of TNF-alpha induced NFkappaB activation in human HT-29 cells assessed as downregulation of A20 gene expression pretreated for 24 hrs followed by TNFalpha stimulation and measured after 2 hrs by quantitative RT-PCR analysis; type: cell-based; conditions: dose 1-10 µM, time 26.0 hrs
[16] = target: T1, Nuclear factor NF-kappa-B complex (Homo sapiens); experiment: Inhibition of TNF-alpha induced NFkappaB activation in human HT-29 cells assessed as inhibition of IL-8 production at 2 uM pretreated for 24 hrs followed by TNFalpha stimulation for 4 hrs by ELISA; type: cell-based; conditions: time 28.0 hrs
[17] = target: T1, Nuclear factor NF-kappa-B complex (Homo sapiens); experiment: Inhibition of TNF-alpha induced NFkappaB activation in human HT-29 cells assessed as inhibition of p65 nuclear translocation at 10 uM pretreated for 6 hrs followed by TNFalpha stimulation for 15 mins by immunohistochemical analysis; type: cell-based; conditions: time 6.25 hrs
RAW264.7 = experiment: Inhibition of LPS-induced NFkappaB activation in mouse RAW264.7 cells assessed as inhibition of p65 phosphorylation preincubated for 24 hrs followed by LPS stimulation for 3 hrs by Western blot analysis; type: cell-based; conditions: dose 1-10 µM, time 27.0 hrs
HCT-116 [18] = experiment: Antitumor activity against human HCT-116 cells xenografted in athymic nude BALB/c mouse assessed as reduction in tumor volume at 5 to 15 mg/kg, ip administered every other day and measured every other day for 16 days; type: functional, organism-based; conditions: dose 5-15 mg/kg, time 16.0 day
HT-29 [19] = experiment: Antitumor activity against human HT-29 cells xenografted in athymic nude BALB/c mouse assessed as induction of apoptosis by measuring increase in cleaved caspase 3 expression in tumor at 15 mg/kg, ip administered every other day and measured after 14 days by immunohistochemistry analysis; type: functional, organism-based; conditions: time 14.0 day
HT-29 [20] = experiment: Antitumor activity against human HT-29 cells xenografted in athymic nude BALB/c mouse assessed as induction of apoptosis by measuring increase in cleaved PARP expression in tumor at 15 mg/kg, ip administered every other day and measured after 14 days by immunohistochemistry analysis; type: functional, organism-based; conditions: time 14.0 day
HCT-116 [21] = experiment: Antitumor activity against human HCT-116 cells xenografted in athymic nude BALB/c mouse assessed as induction of autophagy by measuring increase in LC3B expression in tumor at 15 mg/kg, ip administered every other day and measured after 14 days by immunohistochemistry analysis; type: functional, organism-based; conditions: time 14.0 day
[22] = Toxicity in athymic nude BALB/c mouse xenografted with human HT-29 cells assessed as pathological changes in spleen at 5 to 15 mg/kg, ip administered every other day and measured after 14 days by hematoxylin and eosin staining-based microscopic analysis; type: organism-based; conditions: in vivo, 336 h, dose 5-15 mg/kg, time 14 day
[23] = Toxicity in athymic nude BALB/c mouse xenografted with human HCT-116 cells assessed as pathological changes in lungs at 5 to 15 mg/kg, ip administered every other day and measured after 14 days by hematoxylin and eosin staining-based microscopic analysis; type: organism-based; conditions: in vivo, 336 h, dose 5-15 mg/kg, time 14 day
Mus musculus [24] = experiment: Anti-inflammatory activity in AOM/DSS-induced BALB/c mouse model inflammatory bowel disease assessed as reduction in death rate at 5 to 10 mg/kg, ip pretreated with AOM for 7 days further replaced with DSS for 7 days and repeated for 2 times followed by every 2 days compound treatment for […] starting from day 50 and measured once a week; type: functional, organism-based; conditions: dose 5-10 mg/kg, time 21.0 day
HCT-116 [25] = experiment: Induction of autophagic flux in human HCT-116 cells assessed as increase in LC3 protein expression preincubated with 3-methyladenine for 1 hr followed by compound addition and measured after 24 hrs by Western blot analysis; type: functional, cell-based
RKO = experiment: Cytotoxicity against human RKO cells assessed as decrease in cell viability incubated for 48 hrs by SRB assay; type: functional, cell-based
HCT-116 [26] = experiment: Induction of autophagic cell death in human HCT-116 cells at 1 to 10 uM pretreated with chloroquine for 1 hr followed by compound addition and measured after 24 hrs by SRB assay; type: functional, cell-based; conditions: dose 1-10 µM
HT-29 [27] = experiment: Induction of autophagic cell death in human HT-29 cells at 1 to 10 uM pretreated with 3-methyladenine for 1 hr followed by compound addition and measured after 24 hrs by SRB assay; type: functional, cell-based; conditions: dose 1-10 µM

T1 sequence (P19838 whole entry, looked up): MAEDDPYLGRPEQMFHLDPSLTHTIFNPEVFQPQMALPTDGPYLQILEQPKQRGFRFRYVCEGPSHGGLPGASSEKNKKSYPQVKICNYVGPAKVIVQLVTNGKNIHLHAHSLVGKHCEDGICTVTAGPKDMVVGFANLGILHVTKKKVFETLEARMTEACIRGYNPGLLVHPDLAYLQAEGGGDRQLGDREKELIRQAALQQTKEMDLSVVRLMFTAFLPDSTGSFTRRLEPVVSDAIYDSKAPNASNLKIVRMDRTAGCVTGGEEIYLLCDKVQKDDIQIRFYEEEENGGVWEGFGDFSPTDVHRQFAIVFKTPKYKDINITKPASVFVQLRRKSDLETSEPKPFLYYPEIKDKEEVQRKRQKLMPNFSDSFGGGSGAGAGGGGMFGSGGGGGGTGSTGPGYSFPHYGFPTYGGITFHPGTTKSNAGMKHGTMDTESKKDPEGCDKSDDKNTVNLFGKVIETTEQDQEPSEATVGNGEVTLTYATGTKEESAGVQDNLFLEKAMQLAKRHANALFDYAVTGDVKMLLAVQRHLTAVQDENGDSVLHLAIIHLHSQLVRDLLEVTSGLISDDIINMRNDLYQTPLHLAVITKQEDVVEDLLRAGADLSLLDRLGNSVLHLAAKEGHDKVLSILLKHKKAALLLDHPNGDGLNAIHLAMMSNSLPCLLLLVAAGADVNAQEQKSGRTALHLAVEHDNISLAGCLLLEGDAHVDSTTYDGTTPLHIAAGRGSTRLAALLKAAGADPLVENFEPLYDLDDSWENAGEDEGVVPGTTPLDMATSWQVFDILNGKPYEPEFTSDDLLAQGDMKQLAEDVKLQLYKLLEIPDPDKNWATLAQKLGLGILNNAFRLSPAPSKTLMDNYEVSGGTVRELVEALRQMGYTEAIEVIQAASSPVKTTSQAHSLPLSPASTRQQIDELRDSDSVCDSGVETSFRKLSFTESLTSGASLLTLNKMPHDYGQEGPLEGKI
T1 sequence (Q00653 whole entry, looked up): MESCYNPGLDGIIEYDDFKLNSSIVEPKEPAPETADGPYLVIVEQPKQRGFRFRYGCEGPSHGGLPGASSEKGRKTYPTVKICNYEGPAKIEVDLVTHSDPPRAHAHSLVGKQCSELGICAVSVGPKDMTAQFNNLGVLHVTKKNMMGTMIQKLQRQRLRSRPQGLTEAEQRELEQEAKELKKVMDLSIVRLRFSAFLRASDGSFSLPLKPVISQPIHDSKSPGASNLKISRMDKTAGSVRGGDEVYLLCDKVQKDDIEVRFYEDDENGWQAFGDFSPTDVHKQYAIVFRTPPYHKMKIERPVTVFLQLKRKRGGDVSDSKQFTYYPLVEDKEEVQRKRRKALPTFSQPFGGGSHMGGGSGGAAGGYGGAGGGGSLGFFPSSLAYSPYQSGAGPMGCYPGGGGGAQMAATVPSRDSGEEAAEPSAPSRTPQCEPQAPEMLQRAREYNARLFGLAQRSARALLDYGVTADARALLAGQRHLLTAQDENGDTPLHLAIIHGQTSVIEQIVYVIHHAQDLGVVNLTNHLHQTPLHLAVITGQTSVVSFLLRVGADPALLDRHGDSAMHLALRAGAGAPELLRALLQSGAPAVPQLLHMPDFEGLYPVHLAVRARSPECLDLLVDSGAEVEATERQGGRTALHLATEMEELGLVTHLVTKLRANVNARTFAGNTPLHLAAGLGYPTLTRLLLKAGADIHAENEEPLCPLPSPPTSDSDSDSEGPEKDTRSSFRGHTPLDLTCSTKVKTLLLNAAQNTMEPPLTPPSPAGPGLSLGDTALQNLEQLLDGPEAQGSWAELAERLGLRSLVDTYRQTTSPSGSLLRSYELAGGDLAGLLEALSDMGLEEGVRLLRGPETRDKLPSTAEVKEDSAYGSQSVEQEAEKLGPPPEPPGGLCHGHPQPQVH
T1 sequence (Q04206 whole entry, looked up): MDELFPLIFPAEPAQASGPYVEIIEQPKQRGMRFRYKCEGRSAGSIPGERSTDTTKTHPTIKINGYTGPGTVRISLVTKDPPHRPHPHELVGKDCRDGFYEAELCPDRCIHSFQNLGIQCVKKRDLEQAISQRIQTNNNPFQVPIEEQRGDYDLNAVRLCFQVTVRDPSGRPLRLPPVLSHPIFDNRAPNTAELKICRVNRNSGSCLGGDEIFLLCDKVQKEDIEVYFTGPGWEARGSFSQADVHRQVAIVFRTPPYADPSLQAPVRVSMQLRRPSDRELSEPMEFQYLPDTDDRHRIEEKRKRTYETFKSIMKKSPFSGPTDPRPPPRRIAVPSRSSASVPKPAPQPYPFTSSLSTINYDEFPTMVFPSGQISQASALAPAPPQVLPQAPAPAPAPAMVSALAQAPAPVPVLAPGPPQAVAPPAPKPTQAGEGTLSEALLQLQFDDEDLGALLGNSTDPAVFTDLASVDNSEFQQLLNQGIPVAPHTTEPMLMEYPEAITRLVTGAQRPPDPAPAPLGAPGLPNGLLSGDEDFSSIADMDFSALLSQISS

C[C@@H]1CC[C@H]2[C@H](C(=O)c3c(O)c([C@@]4(O)CC[C@@H](O)[C@H]5O[C@H]54)cn(O)c3=O)[C@H](C)C=C[C@@H]2C1
Activity [1]: Non-Toxic | inhibition (Mus musculus [2]): Active | Activity (HT-29 [3]): Active | IC50 (SW-620): 570 nM | Activity (HT-29 [4]): 67.37% | Activity (HCT-116 [5]): Active | Activity (HT-29 [6]): Active | Activity (HT-29 [7]): Active | Activity (HCT-116 [8]): 16.2% | Activity (HCT-116 [9]): 2.41% | viability at 1 µM (HT-29 [10]): 44.8% | Activity (HT-29 [11]): 47.4% | Activity (HT-29 [12]): Dose-Dependent Effect | Activity (HCT-116 [13]): 0.52% | Activity (HCT-116 [14]): 0.39% | inhibition [15]: Dose-Dependent Effect | inhibition [16]: Active | inhibition [17]: Active | inhibition (RAW264.7): Dose-Dependent Effect | Activity (HCT-116 [18]): Active | Activity (HT-29 [19]): Active | Activity (HT-29 [20]): Active | Activity (HCT-116 [21]): Active | Activity [22]: Non-Toxic | Activity [23]: Non-Toxic | Activity (Mus musculus [24]): Active | Activity (HCT-116 [25]): Active | IC50 (RKO): 570 nM | Activity (HCT-116 [26]): inactive | Activity (HT-29 [27]): inactive

— ChEMBL document CHEMBL5390201, “The Natural Alkaloid (-)-N-Hydroxyapiosporamide Suppresses Colorectal Tumor Progression as an NF-κB Pathway Inhibitor by Targeting the TAK1-TRAF6 Complex” (J Nat Prod, 2023)
